Test results published in patent publication US9598423B2 (BRISTOL-MYERS SQUIBB COMPANY, priority 2013, dated 2017).

What was measured:
CK1ε = CK1ε (Homo sapiens (Human), UniProt P49674); assay: CK1ε kinase assay (Caliper LABCHIP electrophoretic separation of fluoresceinated peptide substrate and product); type: biochemical; conditions: 200 pM CK1ε, 50 μM ATP, 1.5 μM peptide substrate, 22 hours at room temperature; read-out: CK1ε (IC50)
Method in brief: (§1)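 Incubated for twenty-two hours at ambient temperature, then quenched with EDTA and analyzed by electrophoretic separation of unphosphorylated and phosphorylated peptide.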

CK1δ = CK1δ (Homo sapiens (Human), UniProt P48730); assay: CK1δ kinase assay (Caliper LABCHIP electrophoretic separation of fluoresceinated peptide substrate and product); type: biochemical; conditions: 200 pM CK1δ, 50 μM ATP, 1.5 μM peptide substrate, 22 hours at room temperature; read-out: CK1δ (IC50)
Sequence of CK1δ (P48730 whole entry): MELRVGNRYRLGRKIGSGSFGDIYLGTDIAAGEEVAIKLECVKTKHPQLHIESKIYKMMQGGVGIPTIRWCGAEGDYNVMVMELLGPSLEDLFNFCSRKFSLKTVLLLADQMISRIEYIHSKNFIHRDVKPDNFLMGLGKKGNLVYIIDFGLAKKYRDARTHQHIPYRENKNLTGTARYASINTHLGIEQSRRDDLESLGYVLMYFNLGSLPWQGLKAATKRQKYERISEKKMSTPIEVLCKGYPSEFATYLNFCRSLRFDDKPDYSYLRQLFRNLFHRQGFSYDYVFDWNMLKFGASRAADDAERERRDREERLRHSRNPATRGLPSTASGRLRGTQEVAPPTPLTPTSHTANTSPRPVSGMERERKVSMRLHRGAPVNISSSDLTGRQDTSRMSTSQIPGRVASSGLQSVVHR
Method in brief: as §1

Sequence of CK1ε (P49674 whole entry): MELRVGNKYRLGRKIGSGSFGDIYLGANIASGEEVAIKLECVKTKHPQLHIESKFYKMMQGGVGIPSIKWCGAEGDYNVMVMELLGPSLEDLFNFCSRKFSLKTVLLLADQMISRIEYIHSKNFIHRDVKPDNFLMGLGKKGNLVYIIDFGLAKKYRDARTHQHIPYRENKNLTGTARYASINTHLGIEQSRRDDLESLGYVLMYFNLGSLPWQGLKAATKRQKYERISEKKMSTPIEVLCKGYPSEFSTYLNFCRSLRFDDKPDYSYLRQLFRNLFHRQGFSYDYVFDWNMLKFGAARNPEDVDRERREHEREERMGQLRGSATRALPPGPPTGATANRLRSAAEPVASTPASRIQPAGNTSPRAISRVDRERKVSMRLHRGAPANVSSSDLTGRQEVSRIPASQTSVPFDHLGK

| SMILES | IC50 (CK1ε) [nM] | IC50 (CK1δ) [nM] |
| --- | --- | --- |
| NC(=O)c1c(-c2cccc(F)c2)nn2c1CN(C(=O)Nc1cc(F)cc(F)c1)CC2 [Compound 31, N^5-(3,5-Difluorophenyl)-2-(3-fluorophenyl)-6,7-dihydropyrazolo[1,5-a]pyrazine-3,5(4H)-dicarboxamide] | 0.01 to 10 | 0.01 to 10 |
| NC(=O)c1c(-c2ccc(F)c(Cl)c2)nn2c1CN(C(=O)Nc1cc(C(F)(F)F)cc(C(F)(F)F)c1)CC2 [Compound 188, N^5-(3,5-Bis(trifluoromethyl)phenyl)-2-(3-chloro-4-fluorophenyl)-6,7-dihydropyrazolo[1,5-a] pyrazine-3,5(4H)-dicarboxamide] | 0.01 to 10 | 0.01 to 10 |
| COc1ccc(Cl)cc1-c1nn2c(c1C(N)=O)CN(C(=O)Nc1ccc(C#N)cc1)CC2 [Compound 278, 2-(5-Chloro-2-methoxyphenyl)-N^5-(4-cyanophenyl)-6,7-dihydropyrazolo[1,5-a] pyrazine-3,5(4H)-dicarboxamide] | 10 to 100 | 10 to 100 |
| Cc1cc(NC(=O)N2CCn3nc(-c4cc(F)cc(Cl)c4)c(C(N)=O)c3C2)ccc1C#N [Compound 221, 2-(3-Chloro-5-fluorophenyl)-N^5-(4-cyano-3-methylphenyl)-6,7-dihydropyrazolo[1,5-a]pyrazine-3,5(4H)-dicarboxamide] | 0.01 to 10 | 0.01 to 10 |
| N#Cc1ccc(NC(=O)N2Cc3c(C(N)=O)c(-c4ccc(F)c(Cl)c4)nn3C(C(=O)NC3CCOCC3)C2)cc1 (single isomer, unassigned) [Compound A28, 2-(3-Chloro-4-fluorophenyl)-N^5-(4-cyanophenyl)-N^7-(tetrahydro-2H-pyran-4-yl)-6,7-dihydropyrazolo[1,5-a]pyrazine-3,5,7(4H)-tricarboxamide] | 10 to 100 | 10 to 100 |
| CN(C)c1cc(Cl)cc(-c2nn3c(c2C(N)=O)CN(C(=O)Nc2ccc(C#N)c(C(F)(F)F)c2)CC3)c1 [Compound 266, 2-(3-Chloro-5-(dimethylamino)phenyl)-N^5-(4-cyano-3-(trifluoromethyl)phenyl)-6,7-dihydropyrazolo[1,5-a]pyrazine-3,5(H)-dicarboxamide] | 0.01 to 10 | 0.01 to 10 |
| Cc1cc(NC(=O)N2CCn3nc(-c4cc(F)c5cnn(C)c5c4)c(C(N)=O)c3C2)ccc1C#N [compound 327] | 0.01 to 10 | 0.01 to 10 |
| N#Cc1ccc(NC(=O)N2CCn3nc(-c4cncc(Cl)c4)c(C(N)=O)c3C2)cc1 [Compound 270, 2-(5-Chloropyridin-3-yl)-N^5-(4-cyanophenyl)-6,7-dihydropyrazolo[1,5-a]pyrazine-3,5(4H)-dicarboxamide] | 0.01 to 10 | 0.01 to 10 |
| CSc1cccc(-c2nn3c(c2C(N)=O)CN(C(=O)Nc2ccc(C#N)cc2)CC3)c1 [Compound 281, N^5-(4-Cyanophenyl)-2-(3-(methylthio)phenyl)-6,7-dihydropyrazolo[1,5-a] pyrazine-3,5(4H)-dicarboxamide] | 0.01 to 10 | 0.01 to 10 |
| N#Cc1ccc(NC(=O)N2CCn3nc(-c4ccc(F)c(F)c4)c(C(N)=O)c3C2)cc1C(F)(F)F [Compound 237, N^5-(4-Cyano-3-(trifluoromethyl)phenyl)-2-(3,4-difluorophenyl)-6,7-dihydropyrazolo [1,5-a]pyrazine-3,5(4H)-dicarboxamide] | 0.01 to 10 | 0.01 to 10 |
| Cc1ccc(-c2nn3c(c2C(N)=O)CN(C(=O)Nc2ccc(C#N)c(Cl)c2)CC3)cc1Cl [Compound 256, N^5-(3-Chloro-4-cyanophenyl)-2-(3-chloro-4-methylphenyl)-6,7-dihydropyrazolo[1,5-a] pyrazine-3,5(4H)-dicarboxamide] | 0.01 to 10 | 0.01 to 10 |
| Cc1cc(-c2nn3c(c2C(N)=O)CN(C(=O)Nc2ccc4ncsc4c2)CC3)ccc1F [Compound 241, N^5-(Benzo[d]thiazol-6-yl)-2-(4-fluoro-3-methylphenyl)-6,7-dihydropyrazolo[1,5-a] pyrazine-3,5(4H)-dicarboxamide] | 0.01 to 10 | 0.01 to 10 |
| Cc1ncc(-c2ccc(NC(=O)N3CCn4nc(-c5cccc(Cl)c5)c(C(N)=O)c4C3)cc2)o1 [Compound A47, 2-(3-Chlorophenyl)-N^5-(4-(2-methyloxazol-5-yl)phenyl)-6,7-dihydropyrazolo[1,5-a]pyrazine-3,5(4H)-dicarboxamide] | 0.01 to 10 | 0.01 to 10 |
| NC(=O)c1ccc(NC(=O)N2CCn3nc(-c4ccc(F)c(Cl)c4)c(C(N)=O)c3C2)cc1 [Compound 180, N^5-(4-Carbamoylphenyl)-2-(3-chloro-4-fluorophenyl)-6,7-dihydropyrazolo[1,5-a] pyrazine-3,5(4H)-dicarboxamide] | 0.01 to 10 | 0.01 to 10 |
| CC(=O)Nc1cccc(-c2nn3c(c2C(N)=O)CN(C(=O)Nc2ccc(C#N)cc2)CC3)c1 [Compound 288, 2-(3-Acetamidophenyl)-N^5-(4-cyanophenyl)-6,7-dihydropyrazolo[1,5-a] pyrazine-3,5(4H)-dicarboxamide] | 100 to 2000 | 100 to 2000 |
| N#Cc1ccc(NC(=O)N2CCn3nc(-c4ccc(F)c(Cl)c4)c(C(N)=O)c3C2)cc1Cl [Compound 203, N^5-(3-Chloro-4-cyanophenyl)-2-(3-chloro-4-fluorophenyl)-6,7-dihydropyrazolo[1,5-a]pyrazine-3,5(4H)-dicarboxamide] | 0.01 to 10 | 0.01 to 10 |
| N#Cc1ccc(NC(=O)N2CCn3nc(-c4ccc(F)c(Cl)c4)c(C(N)=O)c3C2)cc1 [Compound 172] | 0.01 to 10 | 0.01 to 10 |
| N#Cc1ccc(NC(=O)N2CCn3nc(-c4cc(F)c5cn[nH]c5c4)c(C(N)=O)c3C2)cc1F [Compound 324, N^5-(4-Cyano-3-fluorophenyl)-2-(4-fluoro-1H-indazol-6-yl)-6,7-dihydropyrazolo[1,5-a]pyrazine-3,5(4H)-dicarboxamide] | 0.01 to 10 | 0.01 to 10 |
| COc1ccc(NC(=O)N2CCn3nc(-c4ccc(F)c(Cl)c4)c(C(N)=O)c3C2)cc1C(F)(F)F [Compound 189, 2-(3-Chloro-4-fluorophenyl)-N^5-(4-methoxy-3-(trifluoromethyl)phenyl)-6,7-dihydropyrazolo[1,5-a]pyrazine-3,5(4H)-dicarboxamide] | 0.01 to 10 | 0.01 to 10 |
| Cc1cc(NC(=O)N2CCn3nc(-c4cccc(F)c4)c(C(N)=O)c3C2)ccc1C#N [Compound A55, N^5-(4-Cyano-3-methylphenyl)-2-(3-fluorophenyl)-6,7-dihydropyrazolo[1,5-a]pyrazine-3,5(4H)-dicarboxamide] | 0.01 to 10 | 0.01 to 10 |
| CN(C)c1cccc(-c2nn3c(c2C(N)=O)CN(C(=O)Nc2ccc(C#N)cc2)CC3)c1 [Compound 279, N^5-(4-Cyanophenyl)-2-(3-(dimethylamino)phenyl)-6,7-dihydropyrazolo[1,5-a] pyrazine-3,5(4H)-dicarboxamide] | 0.01 to 10 | 0.01 to 10 |
| CC(C)OC(=O)N1CCC(NC(=O)N2CCn3nc(-c4cccc(F)c4)c(C(N)=O)c3C2)CC1 [Compound 100, Isopropyl 4-(3-carbamoyl-2-(3-fluorophenyl)-4,5,6,7-tetrahydropyrazolo[1,5-a]pyrazine-5-carboxamido)piperidine-1-carboxylate] | 0.01 to 10 | 0.01 to 10 |
| CC(C)(C)NC(=O)N1CCn2nc(-c3cnc4ccccc4c3)c(C(N)=O)c2C1 [Compound 119, N^5-(tert-Butyl)-2-(quinolin-3-yl)-6,7-dihydropyrazolo[1,5-a]pyrazine-3,5(4H)-dicarboxamide] | 0.01 to 10 | 0.01 to 10 |
